Reference: PMC2935355 (PLoS ONE, 2010)
Like-named read-outs stand apart in the source and are kept apart here.

Target: T1, ClC-7 (Rattus norvegicus, UniProt P51799)
T1 construct: gene Clcn7; wt rat ClC-7 with C-terminal EGFP fusion; with Ostm1 (mouse)
T1 sequence (P51799 1-803): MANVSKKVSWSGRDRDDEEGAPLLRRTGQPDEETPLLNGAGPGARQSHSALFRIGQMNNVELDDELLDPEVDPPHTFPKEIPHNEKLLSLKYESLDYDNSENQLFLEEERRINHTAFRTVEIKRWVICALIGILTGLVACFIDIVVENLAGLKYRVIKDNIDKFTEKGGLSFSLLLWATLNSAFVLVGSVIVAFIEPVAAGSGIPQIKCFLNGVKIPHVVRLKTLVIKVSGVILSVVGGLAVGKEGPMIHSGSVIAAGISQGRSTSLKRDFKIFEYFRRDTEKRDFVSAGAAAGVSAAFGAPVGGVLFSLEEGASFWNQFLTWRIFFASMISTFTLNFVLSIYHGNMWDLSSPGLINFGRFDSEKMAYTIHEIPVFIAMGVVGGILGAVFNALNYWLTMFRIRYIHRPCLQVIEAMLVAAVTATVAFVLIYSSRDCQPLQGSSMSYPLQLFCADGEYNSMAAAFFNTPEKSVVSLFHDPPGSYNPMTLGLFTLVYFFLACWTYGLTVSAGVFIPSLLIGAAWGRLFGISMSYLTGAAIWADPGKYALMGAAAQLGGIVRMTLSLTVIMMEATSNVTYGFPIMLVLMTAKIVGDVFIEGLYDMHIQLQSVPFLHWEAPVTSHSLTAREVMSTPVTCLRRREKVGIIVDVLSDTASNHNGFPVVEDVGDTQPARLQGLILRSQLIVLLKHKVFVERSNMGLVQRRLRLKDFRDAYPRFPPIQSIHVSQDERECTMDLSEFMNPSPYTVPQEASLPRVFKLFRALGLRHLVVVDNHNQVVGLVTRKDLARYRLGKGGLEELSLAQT
T1 sequence (Q8BGT0 35-338 partner): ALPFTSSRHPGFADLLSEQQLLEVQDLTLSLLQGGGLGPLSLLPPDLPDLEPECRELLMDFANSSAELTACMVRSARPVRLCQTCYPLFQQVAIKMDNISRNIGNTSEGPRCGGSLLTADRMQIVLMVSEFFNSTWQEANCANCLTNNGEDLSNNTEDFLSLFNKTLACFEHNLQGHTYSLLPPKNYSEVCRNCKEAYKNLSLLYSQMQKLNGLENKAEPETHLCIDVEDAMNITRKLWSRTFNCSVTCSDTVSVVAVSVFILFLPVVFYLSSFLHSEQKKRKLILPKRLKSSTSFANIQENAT
Test: SSM-based electrophysiology on lysosomal membrane fraction of CHO cells, […] NaCl jump
Type: biochemical

| Compound | IC50 | IC50 (read-out: IC50) |
| --- | --- | --- |
| O=C(O)c1cc([N+](=O)[O-])ccc1NCCCc1ccccc1 [compound 3, 5-nitro-2-(3-phenylpropylamino)benzoic acid] | 156 ± 7.8 µM |  |
| O=S(=O)(O)c1cc(N=C=S)ccc1C=Cc1ccc(N=C=S)cc1S(=O)(=O)O [compound 1, 4,4′-diisothiocyanatostilbene-2,2′-disulfonic acid] |  | 39 ± 3.8 µM |
| NS5818 [compound 2] |  | 52 ± 8 µM |
